Columns and labels:
Assay type in all cases: in vivo
[1] = tested on: Glycine max (GLXMA); assay: Pre-emergence herbicidal evaluation, soyabeans
In short: (§1)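 Rating done 2–4 weeks post-treatment in the greenhouse. Compound, in aqueous acetone, was sprayed onto soil surface right after sowing, at rates equivalent to about 0.0125–0.4 kg per hectare, before crop or weed emergence.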

[2] = tested on: Lamium purpureum (LAMPU); assay: Post-emergence herbicidal evaluation, purple deadnettle; conditions: rated 2 to 4 weeks after treatment
In short: (§2)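 Acetone solutions of test compound were diluted with water and sprayed post-emergence at about 0.03 to 0.4 kg per hectare per pot. Plants were kept on greenhouse benches under conventional care. Seedlings were rated 2 to 4 weeks after treatment on a 0–9 scale (0 = growth as untreated control, 9 = death).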

[3] = tested on: Oryza sativum (ORYSA); assay: Post-emergence herbicidal evaluation, rice; conditions: rated 2 to 4 weeks after treatment
In short: as §2

[4] = tested on: Galium aparine (GALAP); assay: Post-emergence herbicidal evaluation, cleaver; conditions: rated 2 to 4 weeks after treatment
In short: as §2

[5] = tested on: Abutilon theophrasti (ABUTH); assay: Pre-emergence herbicidal evaluation, velvetleaf
In short: as §1

[6] = tested on: Solanum nigrum (SOLNI); assay: Pre-emergence herbicidal evaluation, black nightshade
In short: as §1

[7] = tested on: Ambrosia artemiisifolia (AMBEL); assay: Post-emergence herbicidal evaluation, ragweed; conditions: rated 2 to 4 weeks after treatment
In short: as §2

[8] = tested on: Ipomoea hederacea (IPOHE); assay: Post-emergence herbicidal evaluation, morning glory; conditions: rated 2 to 4 weeks after treatment
In short: as §2

[9] = tested on: Glycine max (GLXMA); assay: Post-emergence herbicidal evaluation, soyabeans; conditions: rated 2 to 4 weeks after treatment
In short: as §2

[10] = tested on: Oryza sativum (ORYSA); assay: Pre-emergence herbicidal evaluation, rice
In short: as §1

[11] = tested on: Digitaria sanguinalis (DIGSA); assay: Post-emergence herbicidal evaluation, large crabgrass; conditions: rated 2 to 4 weeks after treatment
In short: as §2

[12] = tested on: Matricaria inodora (MATIN); assay: Post-emergence herbicidal evaluation, mayweed; conditions: rated 2 to 4 weeks after treatment
In short: as §2

[13] = tested on: Ipomoea hederacea (IPOHE); assay: Pre-emergence herbicidal evaluation, morning glory
In short: as §1

[14] = tested on: Zea mays (ZEAMX); assay: Pre-emergence herbicidal evaluation, maize
In short: as §1

[15] = tested on: Setaria viridis (SETVI); assay: Post-emergence herbicidal evaluation, green foxtail; conditions: rated 2 to 4 weeks after treatment
In short: as §2

[16] = tested on: Triticum aestivum (TRZAW); assay: Pre-emergence herbicidal evaluation, winter wheat
In short: as §1

[17] = tested on: Zea mays (ZEAMX); assay: Post-emergence herbicidal evaluation, maize; conditions: rated 2 to 4 weeks after treatment
In short: as §2

[18] = tested on: Triticum aestivum (TRZAW); assay: Post-emergence herbicidal evaluation, winter wheat; conditions: rated 2 to 4 weeks after treatment
In short: as §2

[19] = tested on: Alopecurus myosuroides (ALOMY); assay: Post-emergence herbicidal evaluation, black grass; conditions: rated 2 to 4 weeks after treatment
In short: as §2

[20] = tested on: Stellaria media (STEME); assay: Pre-emergence herbicidal evaluation, chickweed
In short: as §1

[21] = tested on: Alopecurus myosuroides (ALOMY); assay: Pre-emergence herbicidal evaluation, black grass
In short: as §1

[22] = tested on: Matricaria inodora (MATIN); assay: Pre-emergence herbicidal evaluation, mayweed
In short: as §1

[23] = tested on: Stellaria media (STEME); assay: Post-emergence herbicidal evaluation, chickweed; conditions: rated 2 to 4 weeks after treatment
In short: as §2

[24] = tested on: Setaria viridis (SETVI); assay: Pre-emergence herbicidal evaluation, green foxtail
In short: as §1

[25] = tested on: Abutilon theophrasti (ABUTH); assay: Post-emergence herbicidal evaluation, velvetleaf; conditions: rated 2 to 4 weeks after treatment
In short: as §2

[26] = tested on: Galium aparine (GALAP); assay: Pre-emergence herbicidal evaluation, cleaver
In short: as §1

Cc1cc(OCC=C(Cl)Cl)nc(Oc2cc(C(F)(F)F)nn2C)c1 [Example 12]
0 (0 - No effect): ORYSA rating ([10]; dose 0.013 kg/ha) | ORYSA rating ([10]; dose 0.025 kg/ha) | ZEAMX rating ([14]; dose 0.013 kg/ha)
5 (5 - Definite injury): SOLNI rating ([6]; dose 0.013 kg/ha) | AMBEL rating ([7]; dose 0.03 kg/ha) | GLXMA rating ([9]; dose 0.03 kg/ha) | ZEAMX rating ([14]; dose 0.4 kg/ha) | TRZAW rating ([18]; dose 0.4 kg/ha) | SETVI rating ([24]; dose 0.013 kg/ha)
3 (3 - Moderate effect): GLXMA rating ([1]; dose 0.1 kg/ha) | ORYSA rating ([3]; dose 0.1 kg/ha) | ORYSA rating ([10]; dose 0.4 kg/ha) | IPOHE rating ([13]; dose 0.025 kg/ha) | ZEAMX rating ([14]; dose 0.1 kg/ha) | TRZAW rating ([16]; dose 0.1 kg/ha) | TRZAW rating ([18]; dose 0.03 kg/ha) | TRZAW rating ([18]; dose 0.1 kg/ha) | ALOMY rating ([21]; dose 0.013 kg/ha)
8 (8 - Approaching complete kill): LAMPU rating ([2]; dose 0.03 kg/ha) | LAMPU rating ([2]; dose 0.1 kg/ha) | LAMPU rating ([2]; dose 0.4 kg/ha) | GALAP rating ([4]; dose 0.1 kg/ha) | ABUTH rating ([5]; dose 0.1 kg/ha) | SOLNI rating ([6]; dose 0.025 kg/ha) | SOLNI rating ([6]; dose 0.1 kg/ha) | SOLNI rating ([6]; dose 0.4 kg/ha) | GLXMA rating ([9]; dose 0.1 kg/ha) | GLXMA rating ([9]; dose 0.4 kg/ha) | DIGSA rating ([11]; dose 0.03 kg/ha) | MATIN rating ([12]; dose 0.03 kg/ha) | MATIN rating ([12]; dose 0.1 kg/ha) | MATIN rating ([12]; dose 0.4 kg/ha) | ALOMY rating ([19]; dose 0.03 kg/ha) | STEME rating ([20]; dose 0.025 kg/ha) | ALOMY rating ([21]; dose 0.025 kg/ha) | MATIN rating ([22]; dose 0.013 kg/ha) | STEME rating ([23]; dose 0.03 kg/ha) | STEME rating ([23]; dose 0.1 kg/ha) | STEME rating ([23]; dose 0.4 kg/ha) | ABUTH rating ([25]; dose 0.03 kg/ha) | GALAP rating ([26]; dose 0.1 kg/ha)
1 (1 - Trace effect): GLXMA rating ([1]; dose 0.013 kg/ha) | ORYSA rating ([10]; dose 0.1 kg/ha) | TRZAW rating ([16]; dose 0.013 kg/ha) | GALAP rating ([26]; dose 0.013 kg/ha)
7 (7 - Good herbicidal effect): GALAP rating ([4]; dose 0.03 kg/ha) | ABUTH rating ([5]; dose 0.025 kg/ha) | AMBEL rating ([7]; dose 0.4 kg/ha)
4 (4 - Injury): GLXMA rating ([1]; dose 0.4 kg/ha) | ORYSA rating ([3]; dose 0.4 kg/ha) | ZEAMX rating ([17]; dose 0.1 kg/ha) | GALAP rating ([26]; dose 0.025 kg/ha)
9 (9 - Complete kill): GALAP rating ([4]; dose 0.4 kg/ha) | ABUTH rating ([5]; dose 0.4 kg/ha) | IPOHE rating ([8]; dose 0.03 kg/ha) | IPOHE rating ([8]; dose 0.1 kg/ha) | IPOHE rating ([8]; dose 0.4 kg/ha) | DIGSA rating ([11]; dose 0.1 kg/ha) | DIGSA rating ([11]; dose 0.4 kg/ha) | IPOHE rating ([13]; dose 0.1 kg/ha) | IPOHE rating ([13]; dose 0.4 kg/ha) | SETVI rating ([15]; dose 0.03 kg/ha) | SETVI rating ([15]; dose 0.1 kg/ha) | SETVI rating ([15]; dose 0.4 kg/ha) | ALOMY rating ([19]; dose 0.1 kg/ha) | ALOMY rating ([19]; dose 0.4 kg/ha) | STEME rating ([20]; dose 0.1 kg/ha) | STEME rating ([20]; dose 0.4 kg/ha) | ALOMY rating ([21]; dose 0.1 kg/ha) | ALOMY rating ([21]; dose 0.4 kg/ha) | MATIN rating ([22]; dose 0.025 kg/ha) | MATIN rating ([22]; dose 0.1 kg/ha) | MATIN rating ([22]; dose 0.4 kg/ha) | SETVI rating ([24]; dose 0.025 kg/ha) | SETVI rating ([24]; dose 0.1 kg/ha) | SETVI rating ([24]; dose 0.4 kg/ha) | ABUTH rating ([25]; dose 0.1 kg/ha) | ABUTH rating ([25]; dose 0.4 kg/ha) | GALAP rating ([26]; dose 0.4 kg/ha)
2 (2 - Slight effect): GLXMA rating ([1]; dose 0.025 kg/ha) | ORYSA rating ([3]; dose 0.03 kg/ha) | ABUTH rating ([5]; dose 0.013 kg/ha) | IPOHE rating ([13]; dose 0.013 kg/ha) | ZEAMX rating ([14]; dose 0.025 kg/ha) | TRZAW rating ([16]; dose 0.025 kg/ha) | ZEAMX rating ([17]; dose 0.03 kg/ha)
6 (6 - Herbicidal effect): AMBEL rating ([7]; dose 0.1 kg/ha) | TRZAW rating ([16]; dose 0.4 kg/ha) | ZEAMX rating ([17]; dose 0.4 kg/ha) | STEME rating ([20]; dose 0.013 kg/ha)

Source: patent publication US6852673B2, “Herbicidal pyridine compounds” (BASF Aktiengesellschaft, priority 1998, dated 2005)
